Drawing on patent US20250288704A1, “CXCR4-LIGANDS FOR DIAGNOSTIC AND THERAPEUTIC USE AND PRECURSORS THEREOF” (priority 2021, published 2025), this text covers IC50 for ten compounds.

Positions of bridges follow the written chain, without caps; N, C: chain ends. Non-standard residues stand in square brackets, D forms with d. Residues, ends and D or L forms follow the SMILES beside them. Groups on a side chain read outwards from the residue. Chains are numbered I, II in the order given. *: point of attachment. DOTA = O=C(O)CN1CCN(CC(=O)O)CCN(CC(=O)*)CCN(CC(=O)O)CC1; dTyr(3-I) = N[C@H](Cc1ccc(O)c(I)c1)C(=O)O; 2Nal = N[C@@H](Cc1ccc2ccccc2c1)C(=O)O; dCit = NC(=O)NCCC[C@@H](N)C(=O)O; dNMeOrn = CN[C@H](CCCN)C(=O)O; 4Amb = NCc1ccc(C(=O)O)cc1; Mercaptoacetyl = O=C(CS)*; 4Abz = Nc1ccc(C(=O)O)cc1; dDap = NC[C@@H](N)C(=O)O

Sequence of CXCR4 (P61073 whole entry): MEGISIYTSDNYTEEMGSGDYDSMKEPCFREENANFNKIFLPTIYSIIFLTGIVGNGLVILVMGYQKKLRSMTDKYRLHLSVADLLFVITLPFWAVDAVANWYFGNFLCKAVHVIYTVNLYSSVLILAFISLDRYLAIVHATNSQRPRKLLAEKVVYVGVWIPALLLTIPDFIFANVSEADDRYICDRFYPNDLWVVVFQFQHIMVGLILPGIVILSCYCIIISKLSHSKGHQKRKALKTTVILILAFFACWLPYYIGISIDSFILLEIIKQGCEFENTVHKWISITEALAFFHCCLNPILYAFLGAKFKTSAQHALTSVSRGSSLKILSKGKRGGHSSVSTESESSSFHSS

One test addresses CXCR4 (Homo sapiens, UniProt P61073). Put plainly: Determination of IC50: competition with 125I-Fc-131 on CXCR4-positive Jurkat cells.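 Also: test compound at 10^−5 to 10^−11 M competed for 2 h at 8 °C with the radioligand on 400,000 cells per well, bound versus free activity measured by γ-counting.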 It is filed as binding.
Conditions: not given
The arrangement: CXCR4-positive Jurkat T lymphocyte cells were grown in Gibco's RPMI 1640 GlutaMAX medium; endogenous in cells; host or cells: Jurkat T lymphocyte cells (whole cells in suspension, 400.000 per tube).
One may read the IC50 as the midpoint of a concentration-inhibition curve. Turning to `C[C@@H](NC(=O)[C@@H](CCCNC(=N)N)NC(=O)[C@@H](CN)NC(=O)CN1CCN(CC(=O)O)CCN(CC(=O)O)CCN(CC(=O)O)CC1)C(=O)NCc1ccc(C(=O)NCCC[C@@H]2C(=O)N[C@@H](CCCNC(=N)N)C(=O)N[C@@H](Cc3ccc4ccccc4c3)C(=O)NCC(=O)N[C@H](Cc3ccc(O)c(I)c3)C(=O)N2C)cc1` [CXCR4-DOTA-2] (cyclo([dTyr(3-I)][dNMeOrn]([4Amb-dA-dR-dDap-DOTA])R[2Nal]G)), the IC50 was 7.03 ± 0.59 nM.

`CC[C@H](C)[C@@H]([C@@H](CC(=O)N1CCC[C@H]1[C@H](OC)[C@@H](C)C(=O)N[C@H](C)C(O)c1ccccc1)OC)N(C)C(=O)[C@@H](NC(=O)[C@H](C(C)C)N(C)C(=O)OCc1ccc(NC(=O)[C@H](CCCNC(N)=O)NC(=O)[C@@H](NC(=O)CCCCCN2C(=O)CC(SC[C@@H](N)C(=O)NC(CCCNC(=N)N)C(=O)N[C@H](C)C(=O)Nc3ccc(C(=O)NCCC[C@@H]4C(=O)N[C@@H](CCCNC(=N)N)C(=O)N[C@H](Cc5ccc6ccccc6c5)C(=O)NCC(=O)N[C@@H](Cc5ccc(O)cc5)C(=O)N4C)cc3)C2=O)C(C)C)cc1)C(C)C` (stereo partly shown) [CXCR4-MMAE-1]: the half-inhibitory concentration (IC50) is 99.8 ± 7.55 nM.

Compound `C[C@@H](NC(=O)[C@@H](CCCNC(=N)N)NC(=O)[C@@H](C)NC(=O)[C@@H](CO)NC(=O)[C@@H](CO)NC(=O)[C@@H](CO)NC(=O)CS)C(=O)Nc1ccc(C(=O)NCCC[C@@H]2C(=O)N[C@@H](CCCNC(=N)N)C(=O)N[C@@H](Cc3ccc4ccccc4c3)C(=O)NCC(=O)N[C@H](Cc3ccc(O)cc3)C(=O)N2C)cc1` [Tc-CXCR4-2] (I: Mercaptoacetyl-[dS][dS][dS][dA][dR][dA][4Abz] / II: cyclo([dY][dNMeOrn]R[2Nal]G); amide I:C-II:2) displayed a half-maximal inhibitory concentration (IC50) of 32.4 ± 9.9 nM.

Compound `C[C@@H](NC(=O)[C@@H](CCCNC(=N)N)NC(=O)[C@@H](CCCNC(=N)N)NC(=O)[C@@H](CO)NC(=O)[C@@H](CO)NC(=O)[C@@H](CO)NC(=O)CS)C(=O)Nc1ccc(C(=O)NCCC[C@@H]2C(=O)N[C@@H](CCCNC(=N)N)C(=O)N[C@@H](Cc3ccc4ccccc4c3)C(=O)NCC(=O)N[C@H](Cc3ccc(O)cc3)C(=O)N2C)cc1` [Tc-CXCR4-3] (I: Mercaptoacetyl-[dS][dS][dS][dR][dR][dA][4Abz] / II: cyclo([dY][dNMeOrn]R[2Nal]G); amide I:C-II:2) registered an IC50 of 184 ± 25.3 nM.

As to `C[C@@H](NC(=O)[C@@H](CCCNC(=N)N)NC(=O)[C@@H](Cc1ccccc1)NC(=O)[C@@H](CO)NC(=O)[C@@H](CO)NC(=O)[C@@H](CO)NC(=O)CS)C(=O)Nc1ccc(C(=O)NCCC[C@@H]2C(=O)N[C@@H](CCCNC(=N)N)C(=O)N[C@@H](Cc3ccc4ccccc4c3)C(=O)NCC(=O)N[C@H](Cc3ccc(O)cc3)C(=O)N2C)cc1` [Tc-CXCR4-4] (I: Mercaptoacetyl-[dS][dS][dS][dF][dR][dA][4Abz] / II: cyclo([dY][dNMeOrn]R[2Nal]G); amide I:C-II:2), the IC50 was 3490 ± 502 nM.

The test is the same for the next values; noted with them: unlabeled or cold (natGa/natLu) compound vs 125I-Fc-131, Jurkat cells; read-out: IC50.
Regarding `C[C@@H](NC(=O)[C@@H](CCCNC(=N)N)NC(=O)[C@@H](CN)NC(=O)CN1CCN(CC(=O)O)CCN(CC(=O)O)CCN(CC(=O)O)CC1)C(=O)NCc1ccc(C(=O)NCCC[C@@H]2C(=O)N[C@@H](CCCNC(=N)N)C(=O)N[C@@H](Cc3ccc4ccccc4c3)C(=O)NCC(=O)N[C@H](Cc3ccc(O)cc3)C(=O)N2C)cc1` [CXCR4-DOTA-1 [Ga]] (cyclo([dY][dNMeOrn]([4Amb-dA-dR-dDap-DOTA])R[2Nal]G)), the IC50 was found to be 2.95 ± 0.59 nM.

Consider `C[C@@H](NC(=O)[C@@H](CCCNC(=N)N)NC(=O)[C@@H](CN)NC(=O)CN1CCN(CC(=O)O)CCN(CC(=O)O)CCN(CC(=O)O)CC1)C(=O)NCc1ccc(C(=O)NCCC[C@@H]2C(=O)N[C@@H](CCCNC(=N)N)C(=O)N[C@@H](Cc3ccc4ccccc4c3)C(=O)NCC(=O)N[C@H](Cc3ccc(O)cc3)C(=O)N2C)cc1` [CXCR4-DOTA-1] (cyclo([dY][dNMeOrn]([4Amb-dA-dR-dDap-DOTA])R[2Nal]G)), for which the 50% inhibitory concentration (IC50) is 12.1 ± 2.42 nM.

With `C[C@@H](NC(=O)[C@@H](CCCNC(=N)N)NC(=O)[C@@H](CN)NC(=O)CN1CCN(CC(=O)O)CCN(CC(=O)O)CCN(CC(=O)O)CC1)C(=O)Nc1ccc(C(=O)NCCC[C@@H]2C(=O)N[C@@H](CCCNC(=N)N)C(=O)N[C@@H](Cc3ccc4ccccc4c3)C(=O)NCC(=O)N[C@H](Cc3ccc(O)cc3)C(=O)N2C)cc1` [CXCR4-DOTA-3] (cyclo([dY][dNMeOrn]([4Abz-dA-dR-dDap-DOTA])R[2Nal]G)), the concentration for half-maximal inhibition (IC50) amounted to 3.16 ± 0.63 nM.

Take `C[C@@H](NC(=O)[C@@H](CCCNC(=N)N)NC(=O)[C@@H](CN)NC(=O)CN1CCN(CC(=O)O)CCN(CC(=O)O)CCN(CC(=O)O)CC1)C(=O)Nc1ccc(C(=O)NCCC[C@@H]2C(=O)N[C@@H](CCCNC(=N)N)C(=O)N[C@@H](Cc3ccc4ccccc4c3)C(=O)NCC(=O)N[C@H](Cc3ccc(O)c(I)c3)C(=O)N2C)cc1` [CXCR4-DOTA-4] (cyclo([dTyr(3-I)][dNMeOrn]([4Abz-dA-dR-dDap-DOTA])R[2Nal]G)): the IC50 was found to be 4.64 ± 0.96 nM.

As to `C[C@@H](NC(=O)[C@@H](CCCNC(N)=O)NC(=O)[C@@H](CN)NC(=O)CN1CCN(CC(=O)O)CCN(CC(=O)O)CCN(CC(=O)O)CC1)C(=O)Nc1ccc(C(=O)NCCC[C@@H]2C(=O)N[C@@H](CCCNC(=N)N)C(=O)N[C@@H](Cc3ccc4ccccc4c3)C(=O)NCC(=O)N[C@H](Cc3ccc(O)cc3)C(=O)N2C)cc1` [CXCR4-DOTA-5] (cyclo([dY][dNMeOrn]([4Abz-dA-dCit-dDap-DOTA])R[2Nal]G)), the IC50 amounted to 21.3 ± 6.64 nM.
